Data from the supplement of paper PMC10307832.

Assays:
Assay in all cases: relative viability (nuclei count vs DMSO), 5 days (fraction); higher = more cells survive
Ponatinib + OSI-027 = compound: Cc1ccc(C(=O)Nc2ccc(CN3CCN(C)CC3)c(C(F)(F)F)c2)cc1C#Cc1cnc2cccnn12 [Ponatinib] + COc1cccc2cc(-c3nc([C@H]4CC[C@H](C(=O)O)CC4)n4ncnc(N)c34)[nH]c12 [OSI-027] (partner 0.5 µM)
Procedure, shortened: (§1)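 Five library-drug doses in √10 steps were combined with a fixed anchor-drug dose, or a single drug was given alone, by pin tool to lung cancer cell lines in 1536-well plates the day after seeding. Nuclei were stained and counted after 5 days. Relative viability is the nuclei count in treated wells over that in vehicle wells, taken as the median of duplicate plates.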

Pazopanib + Luminespib = compound: Cc1ccc(Nc2nccc(N(C)c3ccc4c(C)n(C)nc4c3)n2)cc1S(N)(=O)=O [Pazopanib] + CCNC(=O)c1noc(-c2cc(C(C)C)c(O)cc2O)c1-c1ccc(CN2CCOCC2)cc1 [Luminespib] (partner 0.01 µM)
Procedure, shortened: as §1

Pazopanib + Lapatinib = compound: Cc1ccc(Nc2nccc(N(C)c3ccc4c(C)n(C)nc4c3)n2)cc1S(N)(=O)=O [Pazopanib] + CS(=O)(=O)CCNCc1ccc(-c2ccc3ncnc(Nc4ccc(OCc5cccc(F)c5)c(Cl)c4)c3c2)o1 [Lapatinib] (partner 2 µM)
Procedure, shortened: as §1

Pazopanib + AZD7762 = compound: Cc1ccc(Nc2nccc(N(C)c3ccc4c(C)n(C)nc4c3)n2)cc1S(N)(=O)=O [Pazopanib] + NC(=O)Nc1cc(-c2cccc(F)c2)sc1C(=O)N[C@H]1CCCNC1 [AZD7762] (partner 0.2 µM)
Procedure, shortened: as §1

Cell Line | relative viability (Ponatinib + OSI-027; first compound 0.002 µM) | relative viability (Ponatinib + OSI-027; first compound 0.006325 µM) | relative viability (Ponatinib + OSI-027; first compound 0.06325 µM) | relative viability (Ponatinib + OSI-027; first compound 0.2 µM) | relative viability (Pazopanib + Luminespib; first compound 0.01 µM) | relative viability (Pazopanib + Luminespib; first compound 0.03162 µM) | relative viability (Pazopanib + Luminespib; first compound 0.1 µM) | relative viability (Pazopanib + Luminespib; first compound 0.3162 µM) | relative viability (Pazopanib + Luminespib; first compound 1 µM) | relative viability (Pazopanib + Lapatinib; first compound 0.01 µM) | relative viability (Pazopanib + Lapatinib; first compound 0.03162 µM) | relative viability (Pazopanib + Lapatinib; first compound 0.1 µM) | relative viability (Pazopanib + Lapatinib; first compound 0.3162 µM) | relative viability (Pazopanib + Lapatinib; first compound 1 µM) | relative viability (Pazopanib + AZD7762; first compound 0.01 µM) | relative viability (Pazopanib + AZD7762; first compound 0.03162 µM) | relative viability (Pazopanib + AZD7762; first compound 0.1 µM) | relative viability (Pazopanib + AZD7762; first compound 0.3162 µM) | relative viability (Pazopanib + AZD7762; first compound 1 µM)
HCC-827 | 0.681 | 0.833 | 0.739 | 0.702 | 0.369 | 0.778 | 0.747 | 0.603 | 0.46 | 0.169 | 0.177 | 0.122 | 0.181 | 0.191 | 0.244 | 0.201 | 0.217 | 0.231 | 0.213
HOP-62 | 0.727 | 0.759 | 0.883 | 0.72 | 0.79 | 0.89 | 0.915 | 0.953 | 0.981 | 1.04 | 1.01 |  | 0.99 | 1.04 | 0.739 | 0.589 | 0.527 | 0.528 | 0.478
IA-LM |  |  |  |  |  |  |  |  |  | 0.703 |  | 0.944 | 0.809 | 0.52 |  |  |  |  | 
LC-2-ad | 0.673 | 0.732 | 0.775 | 0.678 | 0.992 | 1.06 | 1.02 | 1.03 | 1.23 | 1.01 | 0.954 | 0.999 | 0.979 | 1.12 | 0.834 | 0.835 | 0.906 | 0.92 | 0.85
LCLC-97TM1 | 0.448 | 0.561 | 0.606 | 0.28 | 0.817 | 0.839 | 0.831 | 0.925 | 0.736 |  | 0.613 | 0.974 | 1.52 | 0.918 |  | 0.241 | 0.248 | 0.303 | 0.188
LCLC-103H | 0.43 | 0.382 | 0.453 | 0.419 | 0.861 | 1.02 | 1.03 | 0.937 | 1.05 |  |  |  |  |  | 0.576 | 0.805 | 0.897 | 0.792 | 0.822
NCI-H441 | 0.47 | 0.606 | 0.482 | 0.388 | 0.343 | 0.485 | 0.311 | 0.274 | 0.317 |  |  |  |  |  | 1.31 | 1.14 | 1.08 | 1.09 | 1.12
NCI-H520 | 0.273 | 0.244 | 0.203 | 0.2 | 0.234 | 0.235 | 0.227 | 0.218 | 0.214 |  | 0.96 | 0.766 | 0.859 | 0.921 |  |  |  |  | 
NCI-H522 | 0.641 | 0.683 | 0.65 | 0.578 |  | 0.912 | 1.13 | 1.06 | 1.07 |  |  |  |  |  | 0.679 | 0.667 | 1.09 | 1.03 | 0.857
NCI-H661 | 0.669 | 0.707 | 0.763 | 0.666 | 0.926 | 0.927 | 0.958 | 1.02 | 0.953 | 0.538 | 0.629 | 0.476 | 0.431 | 0.648 |  |  |  |  | 
NCI-H1299 |  |  |  |  |  |  |  |  |  | 0.928 | 0.962 | 0.969 | 1.02 | 0.894 |  |  |  |  | 
NCI-H1563 | 0.764 | 0.711 | 0.687 | 0.692 | 0.476 | 0.507 | 0.497 | 0.519 | 0.526 | 0.75 | 1 | 0.997 | 1.09 | 1.16 |  |  |  |  | 
NCI-H1648 | 0.249 | 0.299 | 0.261 | 0.282 |  |  |  |  |  |  |  |  |  |  |  |  | 0.668 | 0.711 | 0.796
NCI-H1650 | 0.611 | 0.66 | 0.748 | 0.568 | 0.195 | 0.189 | 0.235 | 0.195 | 0.187 | 0.693 | 0.868 | 0.718 | 0.82 | 0.895 |  |  |  |  | 
NCI-H1703 |  |  |  |  |  |  |  |  |  | 1.09 | 0.629 | 0.41 | 0.354 | 0.286 |  | 0.12 | 0.16 | 0.14 | 0.125
NCI-H2009 | 0.486 | 0.496 | 0.759 | 0.545 | 1.04 | 0.989 | 0.988 | 0.955 | 0.854 | 0.961 | 0.946 | 0.796 | 0.883 | 0.838 |  |  |  |  | 
NCI-H2023 | 0.347 | 0.379 | 0.399 | 0.267 | 0.781 | 0.77 | 0.652 | 0.613 | 0.883 | 0.509 | 0.806 | 0.73 | 0.791 | 1.35 |  |  |  |  | 
NCI-H2228 | 0.474 | 0.431 | 0.705 | 0.376 | 0.142 | 0.135 | 0.153 | 0.155 | 0.177 | 1.32 | 1.15 | 0.979 | 1.08 | 0.929 |  |  |  |  | 
NCI-H2342 | 0.557 | 0.602 | 0.53 | 0.637 | 0.671 | 0.736 | 0.612 | 0.759 | 0.588 |  |  |  |  |  | 0.455 | 0.484 | 0.562 | 0.521 | 0.474
SK-LU-1 | 0.334 | 0.345 | 0.344 | 0.248 | 0.222 | 0.221 | 0.175 | 0.22 | 0.232 | 0.903 | 0.942 | 1.18 | 0.976 | 0.871 |  |  |  |  | 
SK-MES-1 | 0.566 | 0.653 | 0.717 | 0.537 | 0.846 | 0.79 | 0.746 | 0.913 | 0.75 | 0.43 | 0.472 | 0.508 | 0.491 | 0.58 |  |  |  |  | 
SW 900 | 0.465 | 0.575 | 0.623 | 0.577 | 0.153 | 0.177 | 0.177 | 0.177 | 0.164 |  |  |  |  |  | 0.462 | 0.566 |  | 0.635 | 0.605
SW 1573 | 0.567 | 0.483 | 0.718 | 0.522 | 0.24 | 0.17 | 0.266 | 0.205 | 0.236 | 0.996 | 1.1 | 1.14 | 1.27 | 1.41 |  |  |  |  | 
UMC-11 | 0.47 | 0.49 | 0.555 | 0.525 | 1.08 | 0.994 | 1.06 | 0.98 | 1.09 | 0.807 | 1.03 | 0.939 | 1.01 | 1.12 |  |  |  |  | 
